Measurements: EP0998924A1, “ANTITUMOR AGENTS” (MEIJI MILK PRODUCTS COMPANY LIMITED, priority 1997, dated 1999)

System: topoisomerase II
Assay: Measurement of topoisomerase II inhibitory activity (kDNA decatenation, agarose gel electrophoresis and densitometry)
Assay type: biochemical, rat
Procedure: Test Example 1 Measurement of Topoisomerase II Inhibitory Activity
(A) Extraction of crude topoisomerase II from rat infant brain nuclei (IBN)
IBN (11.98 mg/ml in 50% glycerol) (4.2 µl) was fractionated and subjected to centrifugation (3,000 × g, one minute), to thereby remove glycerol. The thus-obtained pellet was suspended in a nuclear extraction buffer (20 mM Tris-HCl (pH 7.5), 0.3 M NaCl, 140 mM β-Me, […], 20 mM PMSF) (10 µl), and the suspension was incubated in ice for 30 minutes. Subsequently, the suspension was subjected to centrifugation (10,000 × g, 10 minutes) and supernatant was fractionated, to thereby obtain crude topoisomerase II. The thus-obtained topoisomerase II was diluted on the basis of activity.
(B) Dilution of purified topoisomerase II (Top GEN, Inc)
Topoisomerase II (Top GEN, Inc) was diluted with the aforementioned nuclear extraction buffer, so as to attain a concentration of 0.75 unit/ml.
A test sample (1 µl) and a buffer (18 µl) containing a mixture of required amounts of Milli Q, 4 × topoisomerase II buffer (250 mM Tris-HCl (pH 7.9), 600 mM KCl, 50 mM MgCl2, 0.5 mM EDTA, 2.5 mM ATP, 150 mg/ml BSA), and k DNA (312 ng/ml) were added to an Eppendorf tube, and the resultant mixture was vortexed and lightly centrifuged. Subsequently, diluted crude topoisomerase II or diluted purified topoisomerase (1 µl) was added to the mixture, and the mixture was vortexed and lightly centrifuged. (Meanwhile, instead of such topoisomerase II, Milli Q (1 µl) and 50% DMSO (1 µl) were added to a reaction system prepared as a control, which system contains neither enzyme nor xanthone derivative, and 50% DMSO (1 µl) was added to a reaction system containing no xanthone derivative.)
The Eppendorf tube containing crude topoisomerase II and the Eppendorf tube containing purified topoisomerase II were allowed to stand for 30 minutes at 30°C and 37°C, respectively. Subsequently, SDS/PK/BJ (4 µl) was added to both of the tubes in ice, and both were allowed to stand at 50°C for five minutes, vortexed, and lightly centrifuged. After being allowed to stand again at 50°C for 30 minutes, they were vortexed and lightly centrifuged.
(C) Agarose gel electrophoresis and densitometry
The above-treated mixture was subjected to agarose gel electrophoresis (-EtBr 50 V) by use of a 1 × TBE buffer for electrophoresis (89 mM Tris Base/89 mM boric acid/2 mM EDTA2Na). After electrophoresis, gel staining was performed by use of 1 × TBE ([…]). After being decolorized, the gel was irradiated with UV rays, and bands on the gel were observed. The concentration of the agarose gel was 0.8%.
The amount of reacted enzyme was quantified by transforming the depth of color of the bands on the gel into numerical values by use of a computer (Gel Plotting Macros installed in NIH Image). Data of bands of mini-circle DNA were processed by a computer for conversion into numerical values and calculation, to thereby obtain residual activity (%).

[1] = test sample concentration 100 µg/ml
[2] = test sample concentration 500 µg/ml
[3] = test sample concentration 0.5 µg/ml
[4] = test sample concentration 1 µg/ml
[5] = test sample concentration 50 µg/ml
[6] = test sample concentration 10 µg/ml

For Oc1ccc(C=CC=Cc2ccc(O)cc2)cc1 [4,4-(1,3-Butadiene-1,4-diyl)bis-phenol, 4,4-(1,3-butadiene-1,4-diyl)bis-phenol], the “Residual activity (%)” value [1] was 28% and the “Residual activity (%)” value [2] was 0%.
With Oc1ccc([C@H]2c3c(O)cc4c5c3[C@@H]([C@@H](c3ccc(O)cc3)c3c(O)cc(O)cc3[C@@H]5[C@@H](c3ccc(O)cc3)O4)[C@@H]2c2cc(O)cc(O)c2)cc1 [Davidiol A, davidiol A] the “Residual activity (%)” value [1] was 3% and the “Residual activity (%)” value [2] was 2%.
Oc1ccc([C@H]2Oc3cc(O)cc4c3[C@@H]2c2cc(O)cc3c2[C@@H](c2cc(O)cc5c2[C@@H]4[C@H](c2ccc(O)cc2)O5)[C@H](c2ccc(O)cc2)O3)cc1 [α-Viniferin, α-viniferin] was tested, and the “Residual activity (%)” value [3] was 41%, the “Residual activity (%)” value [4] was 38% and the “Residual activity (%)” value [5] was 0%.
In the case of hopeaphenol, the “Residual activity (%)” value [1] is reported as 4% and the “Residual activity (%)” value [2] is reported as 1%.
In the case of kobophenol A, the “Residual activity (%)” value [3] is reported as 68%, the “Residual activity (%)” value [6] is reported as 59% and the “Residual activity (%)” value [5] is reported as 18%.
For leachianol A, the “Residual activity (%)” value [1] was 1% and the “Residual activity (%)” value [2] was 2%.
With leachianol B the “Residual activity (%)” value [1] was 1% and the “Residual activity (%)” value [2] was 1%.
In the case of miyabenol A, the “Residual activity (%)” value [3] is reported as 32%, the “Residual activity (%)” value [4] is reported as 13% and the “Residual activity (%)” value [6] is reported as 0%.
miyabenol C was tested, and the “Residual activity (%)” value [3] was 57%, the “Residual activity (%)” value (test sample concentration 2 µg/ml) was 42% and the “Residual activity (%)” value [6] was 0%.
